From patent EP0233461B2, “4,5,6-Substituted-2-pyrimidinamines” (AMERICAN CYANAMID COMPANY, priority 1986, dated 1987)
Structures can show the parent of a compound that is named as a salt. Where two headings read alike, the source gives them in different places.

Test system: human basophils
Experiment: Inhibition of histamine release from immunologically stimulated human basophils
Format: cell-based
Conditions: concentration causing 50% inhibition of histamine release, by linear regression, active if IC50 ≦ 48 µM
Protocol: The blood is allowed to sediment at room temperature in two 50 ml polycarbonate centrifuge tubes until a sharp interface develops between the red cells and plasma (60-90 minutes). The plasma (top) layer from each tube is withdrawn by pipet and transferred to respective 50 ml polycarbonate tubes. The plasma is centrifuged for 8 minutes at 110X G at 4°C. The supernatant is carefully poured off as completely as possible and the cell button is resuspended in 2-3 ml of Tris-A buffer using a siliconized Pasteur pipet. The resuspension is accomplished by drawing the liquid gently in an out of the pipet, with the tip below the liquid until an even suspension of cells is obtained. Sufficient Tris-A buffer is then added to bring the volume in the tube to about 45 ml and the tube is centrifuged at 110X G for 8 minutes at 4°C. The supernatant is poured off and the cell button is resuspended and centrifuged as described above. The supernatant is poured off and the cell button is suspended in 2-3 ml of Tris-ACM buffer to make the final volume sufficient to allow addition to the reaction tubes. Reaction tubes containing anti-IgE or antigens, either alone or with test compound in a total volume of 0.2 ml are prepared and placed in a 37°C bath. The cells are warmed to 37°C and frequently swirled to ensure an even suspension, while 1.0 ml aliquots are added to each reaction tube. The tubes are then incubated for 60 minutes at 37°C, vortexing the tubes gently every 15 minutes to keep the cells evenly suspended. When the reaction is complete, the tubes are centrifuged at 4°C for 10 minutes at 1500 rpm to sediment the cells. […] Blanks and totals are included in each test. The blanks have cells and all reagents except antigen or anti-IgE. The totals contain 0.24 ml of 8% perchloric acid, one ml of cells and 0.2 ml of buffer. All samples are then centrifuged to remove the precipitate protein. […] The automated system consists of the following Technicon Autoanalyzer II components Sampler IV, Dual-Speed Proportioning Pump III, Fluoronephelometer with a narrow pass primary filter 7-60 and a secondary filter 3-74, Recorder, and Digital Printer. The manifold used is the one described by Siraganian vide supra, with the following modifications: the dialyzer is omitted; all pumping tubes pass through a single proportioning pump with large capacity and twice the volume of sample is taken for anaylsis. The automated chemistry consists of the following steps: Extraction from alkaline saline into butanol, back extraction into dilute hydrochloric acid by addition of heptane, reaction of histamine with o-phthaldialdehyde (OPT) at high pH and conversion of the OPT adduct to a stable fluorophore with phosphoric acid. The reaction product is then passed through the fluorometer. The full scale response is adjusted to 50 ng histamine base with a threshold sensitivity of approximately 0.5 ng. The instrument blank (wash) is substracted from the ng histamine of each sample. Then the ng histamine of each sample is divided by the mean of the three totals (cells lysed with perchloric acid) to obtain percent release. Control samples contain antigen but no test compound. Blank (or spontaneous release) samples contain neither antigen nor test compound. The mean of the blanks (three replicates) is subtracted from the percent release for controls and test compounds.

Row | Structure (SMILES) | IC50 (Homo sapiens, read-out: IC50) [µM] | further results
1 | CON=C(C)c1ccc(Nc2nccc(-c3cccnc3)n2)cc1 [1-[4-[[4-(3-Pyridinyl)-2-pyrimidinyl]amino]phenyl]ethanone, O-methyloxime] | 5.1 | 
2 | Oc1ccccc1Nc1nccc(-c2cccnc2)n1 [2-[[4-(3-Pyridinyl)-2-pyrimidinyl]amino]phenol] | 23.5 | 
3 | NS(=O)(=O)c1cccc(Nc2nccc(-c3ccccn3)n2)c1 [3-[[4-(2-Pyridinyl)-2-pyrimidinyl]amino]benzenesulfonamide] | 0.7 | 
4 | Cc1cccc(Nc2nccc(-c3cc4ccccc4[nH]3)n2)c1 [4-(1H-Indol-2-yl)-N-(3-methylphenyl)-2-pyrimidinamine] | 2.2 | 
5 | c1ccc(Nc2nccc(-c3c[nH]c4ccccc34)n2)cc1 [4-(1H-Indol-3-yl)-N-phenyl-2-pyrimidinamine] | 3 | 
6 | Cc1cc(C)cc(Nc2nccc(-c3cc(C)oc3C)n2)c1 [4-(2,5-Dimethyl-3-furanyl)-N-(3,5-dimethylphenyl)-2-pyrimidinamine] | 4.1 | 
7 | Cc1cccc(Nc2nccc(-c3cc(C)oc3C)n2)c1 [4-(2,5-Dimethyl-3-furanyl)-N-(3-methylphenyl)-2-pyrimidinamine] | 28.5 | 
8 | CCc1ccc(Nc2nccc(-c3cc(C)oc3C)n2)cc1 [4-(2,5-Dimethyl-3-furanyl)-N-(4-ethylphenyl)-2-pyrimidinamine] | 19.2 | 
9 | Cc1cc(-c2ccnc(Nc3ccccc3)n2)c(C)o1 [4-(2,5-Dimethyl-3-furanyl)-N-phenyl-2-pyrimidinamine] | 2 | 
10 | Cc1cnc(Nc2ccccc2)nc1-c1ccco1 [4-(2-Furanyl)-5-methyl-N-phenyl-2-pyrimidinamine, sulfate] |  | IC50 (sulfate): 5 µM
11 | Cc1cnc(Nc2ccccc2)nc1-c1ccco1 [4-(2-Furanyl)-5-methyl-N-phenyl-2-pyrimidinamine] | 17.7 | 
12 | COc1cccc(Nc2nccc(-c3ccco3)n2)c1 [4-(2-Furanyl)-N-(3-methoxyphenyl)-2-pyrimidinamine] | 0.3 | 
13 | Cc1cccc(Nc2nccc(-c3ccco3)n2)c1 [4-(2-Furanyl)-N-(3-methylphenyl)-2-pyrimidinamine] | 3.5 | 
14 | COc1ccc(Nc2nccc(-c3ccco3)n2)cc1 [4-(2-Furanyl)-N-(4-methoxyphenyl)-2-pyrimidinamine] | < 48 | 
15 | Cc1cccc(Nc2nccc(-c3ccco3)n2)c1 [4-(2-Furanyl)-N-[3-(methylphenyl)]-2-pyrimidinamine, sulfate] |  | IC50 (read-out: IC50): 3 µM
16 | c1coc(-c2ccnc(Nc3ccc(-n4ccnc4)cc3)n2)c1 [4-(2-Furanyl)-N-[4-(1H-imidazol-1-yl)phenyl]-2-pyrimidinamine] | 2.2 | 

Row | Structure (SMILES) | IC50 (Homo sapiens, read-out: IC50) [µM] | further results
17 | CN1CCN(c2ccc(Nc3nccc(-c4ccco4)n3)cc2)CC1 [4-(2-Furanyl)-N-[4-(4-methyl-1-piperazinyl)phenyl]-2-pyrimidin-amine] | 1.8 | 
18 | c1ccc(Nc2nccc(-c3ccco3)n2)cc1 [4-(2-Furanyl)-N-phenyl-2-pyrimidinamine] | 48 | 
19 | FC(F)(F)c1cccc(Nc2nccc(-c3ccccn3)n2)c1 [4-(2-Pyridinyl)-N-[3-(trifluoromethyl)phenyl]-2-pyrimidinamine, sulfate] |  | IC50 (sulfate): 3 µM
20 | FC(F)(F)c1cccc(Nc2nccc(-c3ccccn3)n2)c1 [4-(2-Pyridinyl)-N-[3-(trifluoromethyl)phenyl]-2-pyrimidinamine] | 2.9 | 
21 | FC(F)(F)c1cccc(Nc2nccc(-c3cccnc3)n2)c1 [4-(3-Pyridinyl)-N-[3-(trifluoromethyl)phenyl]-2-pyrimidinamine, hydrochloride] | 0.7 | 
22 | FC(F)(F)c1cccc(Nc2nccc(-c3cccnc3)n2)c1 [4-(3-Pyridinyl)-N-[3-(trifluoromethyl)phenyl]-2-pyrimidinamine, sulfate] |  | IC50 (sulfate): 2.6 µM
23 | Cc1cc(C)c(Nc2nccc(-c3ccncc3)n2)c(C)c1 [4-(4-Pyridinyl)-N-(2,4,6-trimethylphenyl)-2-pyrimidinamine] | 10.5 | 
24 | FC(F)(F)c1cccc(Nc2nccc(-c3ccncc3)n2)c1 [4-(4-Pyridinyl)-N-[3-(trifluoro-methyl)phenyl]-2-pyrimidinamine] | 32 | 
25 | FC(F)(F)c1cccc(Nc2nccc(-c3ccncc3)n2)c1 [4-(4-Pyridinyl)-N-[3-(trifluoromethyl)phenyl]-2-pyrimidinamine, sulfate] |  | IC50 (sulfate): < 48 µM
26 | Cc1cc(-c2ccc(C)s2)nc(Nc2ccccc2)n1 [4-Methyl-6-(5-methyl-2-thienyl)-N-phenyl-2-pyrimidinamine] | 24.8 | 
27 | COc1ccc(Nc2nccc(-c3cc[n+](C)cc3)n2)cc1 [4-[2-[(4-Methoxyphenyl)amino]-4-pyrimidinyl]-1-methylpyridinium, iodide] | 33.3 | 
28 | CCOC(=O)c1ccc(Nc2nccc(-c3cccnc3)n2)cc1 [4-[[4-(3-Pyridinyl)-2-pyrimidinyl]amino]-benzoic acid, ethyl ester] | 12.4 | 
29 | Oc1ccc(Nc2nccc(-c3cccnc3)n2)cc1 [4-[[4-(3-Pyridinyl)-2-pyrimidinyl]amino]phenol] | 5.1 | 
30 | NS(=O)(=O)c1ccc(Nc2nccc(-c3cccnc3)n2)cc1 [4-[[4-(3-pyridinyl)-2-pyrimidinyl]amino]benzenesulfonamide] | 0.2 | 
31 | Oc1ccc(Nc2nccc(-c3ccncc3)n2)cc1 [4-[[4-(4-Pyridinyl)-2-primidinyl]amino]phenol] | 3.3 | 

The next lines start with results.

Row | IC50 (Homo sapiens, read-out: IC50) [µM] | Structure (SMILES) | further results
32 | 1.8 | CC(=O)Nc1ccc(Nc2nccc(-c3cccnc3)n2)cc1C | 
33 | 4.1 | CC(=O)c1cccc(Nc2nccc(-c3cccnc3)n2)c1 [1-[3-[[4-(3-Pyridinyl)-2-pyrimidinyl]amino]-phenyl]ethanone] | 
34 | 11.4 | CC(=NO)c1ccc(Nc2nccc(-c3cccnc3)n2)cc1 [1-[4-[[4-(3-Pyridinyl)-2-pyrimidinyl]amino]phenyl]ethanone, oxime] | 
35 | 8.1 | CC(=NNC(N)=O)c1ccc(Nc2nccc(-c3cccnc3)n2)cc1 [2-[1-[4-[[4-(3-Pyridinyl)-2-pyrimidinyl]amino]phenyl]ethylidene]hydrazinecarboxamide] | 
36 | 3 | CCOC(=O)c1cccc(Nc2nccc(-c3ccccn3)n2)c1 [3-[[4-(2-Pyridinyl)-2-pyrimidinyl]amino]benzoic acid, ethyl ester] | 
37 | 0.2 | NS(=O)(=O)c1cccc(Nc2nccc(-c3cccnc3)n2)c1 [3-[[4-(3-Pyridinyl)-2-pyrimidinyl]amino]benzenesulfonamide] | 
38 | 20.3 | CCOC(=O)c1cccc(Nc2nccc(-c3cccnc3)n2)c1 [3-[[4-(3-Pyridinyl)-2-pyrimidinyl]amino]benzoic acid, ethyl ester] | 
39 | 0.5 | NS(=O)(=O)c1cccc(Nc2nccc(-c3ccncc3)n2)c1 [3-[[4-(4-Pyridinyl)-2-pyrimidinyl]-amino]benzenesulfonamide] | 
40 | 1.2 | COc1cccc(Nc2nccc(-c3cc4ccccc4o3)n2)c1 [4-(2-Benzofuranyl)-N-(3-methoxyphenyl)-2-pyrimidinamine] | 
41 | 0.8 | c1cc(Nc2nccc(-c3ccco3)n2)cc(-n2ccnc2)c1 [4-(2-Furanyl)-N-[3-(1H-imidazol-1-yl)phenyl]-2-pyrimidinamine] | 
42 | < 48 | FC(F)(F)c1cccc(Nc2nccc(-c3ccco3)n2)c1 [4-(2-Furanyl)-N-[3-(trifluoromethyl)phenyl]-2-pyrimidinamine] | 
43 | 2 | Cc1cccc(Nc2nccc(-c3ccc(C)o3)n2)c1 [4-(5-Methyl-2-furanyl)-N-(3-methylphenyl)-2-pyrimidinamine] | 
44 | 26.8 | Cc1cc(-c2ccccn2)nc(Nc2ccccc2)n1 [4-Methyl-N-phenyl-6-(2-pyridinyl)-2-pyrimidinamine] | 
45 | 4.5 | NS(=O)(=O)c1ccc(Nc2nccc(-c3ccccn3)n2)cc1 [4-[[4-(2-Pyridinyl)-2-pyrimidinyl]amino]-benzenesulfonamide] | 
46 | 7.6 | O=C(O)c1ccc(Nc2nccc(-c3cccnc3)n2)cc1 [4-[[4-(3-Pyridinyl)-2-pyrimidinyl]amino]benzoic acid] | 
47 | 27.5 | COC(=O)c1ccc(Nc2nccc(-c3ccncc3)n2)cc1 [4-[[4-(4-Pyridinyl)-2-pyrimidinyl]amino]benzoic acid, methyl ester] | 
